In patent publication US20150141439A1, “PHARMACEUTICAL COMPOSITION FOR THE PREVENTION OR TREATMENT OF BRAIN TUMOR OR TEMODAL RESISTANT GLIOBLASTOMA MULTIFORM COMPRISING AZATHIOPRINE AS AN ACTIVE INGREDIENT” (KOREA RESEARCH INSTITUTE OF CHEMICAL TECHNOLOGY, priority 2012, published 2015):

Legend:
[1] = tested on: GBM #4 glioblastoma multiform patient originated cells; assay: Neurosphere formation inhibition, GBM #4; type: cell-based, human; design: key: S: strong effect; I: intermediate effect; R: rare effect; conditions: GBM #4, type B (classical), Azathioprine 1 μM, duration 9 day
Description: (§1) Particularly, to investigate neurosphere formation, glioblastoma multiform cells were cultured for a certain time and the cells were distributed again in culture vessels, followed by additional culture. Then, the number of newly generated neurospheres was measured. First, the glioblastoma multiform patient originated cells were sub-cultured, which were distributed in a 96-well plate (20, 50, and 200 cells in 50 μl of culture medium/well). […] Then, the compound of formula 1 (azathioprine) and the compound of Comparative Example 1 (Temodal) were added to 50 μl of cell culture medium with the same concentrations as the above once a week, which were then cultured for 7˜23 days. When neurosphere was formed at least 50 μm in the control group not treated with the compound, the number of neurospheres in each well was counted to compare the neurosphere formation before and after the treatment of the compound of formula 1 (azathioprine) and the compound of Comparative Example 1 (Temodal).
(§2) The glioblastoma multiform cells used in this experiment were classified into 4 types, which are type A, type B, type C, and type D, according to the gene expression pattern. Methylation of MGMT (O6-me-G methyltransferase), the DNA repair protein, was confirmed in each cell line. […]

[2] = tested on: PC3 Human prostate adenocarcinoma; assay: Secondary cytotoxicity test, PC3; type: cell-based; conditions: PC-3
Description: (§3) Particularly, the cell growth inhibition effect was measured by WST-1 cell proliferation assay [http://www.roche-applied-science.com/PROD_INF/MANUALS/CELL_MAN/apoptosis—087—088.pdf]. The compound of formula 1 was loaded in a 384-well cell culture plate. Three types of glioblastoma multiform cell lines [proneural subtype (559T), mesenchymal subtype (592T), and classical subtype (626T)], normal human astrocytes (NHA), a lung cancer cell line (A549), and a glioblastoma multiform cell line (U87MG) were distributed in the plate at the density of 4.5×10^3 cells/well, and the medium was filled up to make 50 μl per well. At this time, the concentration of the solvent DMSO for the compound of formula 1 was no more than 0.2%. After culturing the cells for 72 hours, 5 mg/ml of WST-1 reagent was added by 5 μl per well, followed by reaction for 3˜4 hours. Then OD450 was measured to investigate the effect of the compound of formula 1 on cell proliferation.
(§4) To investigate the cell growth inhibition effect of the compound of formula 1 of the present invention (azathioprine) in many different cell lines, secondary cytotoxicity test was performed with the cell lines listed in Table 5 by the same manner as described in Example 1.

[3] = tested on: MCF-7 Human breast adenocarcinoma; assay: Secondary cytotoxicity test, MCF-7; type: cell-based; conditions: MCF7
Description: as §3, §4

[4] = tested on: GBM #3 glioblastoma multiform patient originated cells; assay: Neurosphere formation inhibition, GBM #3; type: cell-based, human; design: key: S: strong effect; I: intermediate effect; R: rare effect; conditions: GBM #3, type A (proneural), Azathioprine 1 μM, duration 21 day
Description: as §1, §2

[5] = tested on: normal human astrocytes (NHA); assay: WST-1 cell proliferation assay, NHA; type: cell-based
Description: as §3

[6] = tested on: GBM #6 glioblastoma multiform patient originated cells; assay: Neurosphere formation inhibition, GBM #6; type: cell-based, human; design: key: S: strong effect; I: intermediate effect; R: rare effect; conditions: GBM #6, type B (classical), Azathioprine 1 μM, duration 23 day
Description: (§5) Particularly, to investigate neurosphere formation, glioblastoma multiform cells were cultured for a certain time and the cells were distributed again in culture vessels, followed by additional culture. Then, the number of newly generated neurospheres was measured. First, the glioblastoma multiform patient originated cells were sub-cultured, which were distributed in a 96-well plate (20, 50, and 200 cells in 50 μl of culture medium/well). 2, 6, and 20 μM of the compound of formula 1 (azathioprine) and the compound of Comparative Example 1 (Temodal) were treated thereto by 50 μl per well to make the final concentrations of 1, 3, and 10 μM. Then, the compound of formula 1 (azathioprine) and the compound of Comparative Example 1 (Temodal) were added to 50 μl of cell culture medium with the same concentrations as the above once a week, which were then cultured for 7˜23 days. When neurosphere was formed at least 50 μm in the control group not treated with the compound, the number of neurospheres in each well was counted to compare the neurosphere formation before and after the treatment of the compound of formula 1 (azathioprine) and the compound of Comparative Example 1 (Temodal).
(§6) The glioblastoma multiform cells used in this experiment were classified into 4 types, which are type A, type B, type C, and type D, according to the gene expression pattern. […]

[7] = tested on: CCD986SK Human fibroblast; assay: Secondary cytotoxicity test, CCD986SK; type: cell-based; conditions: CCD-986Sk
Description: as §3, §4

[8] = tested on: GBM #7 glioblastoma multiform patient originated cells; assay: Neurosphere formation inhibition, GBM #7; type: cell-based, human; design: key: S: strong effect; I: intermediate effect; R: rare effect; conditions: GBM #7, type B (classical), Azathioprine 1 μM, duration 23 day
Description: as §5, §6

GBM (559T) cells = conditions: GBM (559T) cell lysate, azathioprine 10 μM, 24 hours later, compared with before the treatment
[9] = tested on: classical subtype (626T) glioblastoma multiform cells; conditions: concentrations starting from 100 μM, culture for 7 days
Description: (§7) Thymidine incorporation assay was performed to investigate the cell growth inhibition effect of the compound of the present invention. Three subtypes of glioblastoma multiform cells [proneural subtype (559T), mesenchymal subtype (592T), classical subtype (626T)] and normal human astrocytes (NHA) were N cultured in a 96-well plate at the density of 1×10^4 cells/well, to which 2 μCi/well of 3H-thymidine was added. Azathioprine was added thereto at different concentrations starting from 100 μM, followed by culture for 7 days. 200 μl/well of scintillation fluid (biofluor) was added thereto and count per minute (cpm) was calculated.

[10] = tested on: mesenchymal subtype (592T) glioblastoma multiform cells; conditions: concentrations starting from 100 μM, culture for 7 days
Description: as §7

[11] = tested on: proneural subtype (559T) glioblastoma multiform cells; conditions: concentrations starting from 100 μM, culture for 7 days
Description: as §7

## Cn1cnc([N+](=O)[O-])c1Sc1ncnc2nc[nH]c12 [Azathioprine, 6-(1-methyl-4-nitro-1H-imidazol-5-ylthio)-7H-purine]
[1]
  inhibition of neurosphere formation: S
[2]
  IC50: 6.7 µM
[3]
  IC50: 2.6 µM
[4]
  inhibition of neurosphere formation: S
[5]; Homo sapiens, Astrocyte, 0.032 μM, 72 hours, read-out: Cell Growth Inhibition (% Inhibition)
  inhibition at 0.032 µM: 1.9%
[5]; Homo sapiens, Astrocyte, 0.1 μM, 72 hours, read-out: Cell Growth Inhibition (% Inhibition)
  inhibition at 0.1 µM: 5.9%
[5]; Homo sapiens, Astrocyte, 0.32 μM, 72 hours, read-out: Cell Growth Inhibition (% Inhibition)
  inhibition at 0.32 µM: 11%
[5]; Homo sapiens, Astrocyte, 1.0 μM, 72 hours, read-out: Cell Growth Inhibition (% Inhibition)
  inhibition at 1 µM: 8.3%
[5]; Homo sapiens, Astrocyte, 3.2 μM, 72 hours, read-out: Cell Growth Inhibition (% Inhibition)
  inhibition at 3.2 µM: 10.5%
[5]; Homo sapiens, Astrocyte, 10 μM, 72 hours, read-out: Cell Growth Inhibition (% Inhibition)
  inhibition at 10 µM: -2.4%
[5]; Homo sapiens, Astrocyte, 72 hours
  GI50: > 10 µM
[5]; WST-1, up to 10 μM
  toxicity in normal astrocytes: did not cause toxicity
[6]
  inhibition of neurosphere formation: S
[7]
  IC50: > 10 µM
[8]
  inhibition of neurosphere formation: S
GBM (559T) cells
  concentrations of azathioprine metabolites (TGMP, MeTIMP, MeTGMP, TIMP) in cell lysate: significantly raised
[9]
  cell growth inhibition effect (3H-thymidine incorporation): significant cell growth inhibition effect
[10]
  cell growth inhibition effect (3H-thymidine incorporation): significant cell growth inhibition effect
[11]
  cell growth inhibition effect (3H-thymidine incorporation): significant cell growth inhibition effect
